From patent US20250311722A1, “IMPROVED BIOCIDE” (Purgos ApS, priority 2022, published 2025)
Where “and” joins values, the source holds several entries; their conditions need not be identical. Identical values can stand only once.

Experiments:
Murine norovirus = assay: ASTM E1052 Kill Time Screen test, antiviral activity; assay type: cell-based
[1] = 10% N-BDA in water; cited from earlier work
Aspergillus niger ISI 3 [2] = assay: Minimal inhibitory concentration (MIC); assay type: cell-based
Procedure: (§1) Minimum inhibitory concentrations (MICs) are defined as the lowest concentration of an antimicrobial that will inhibit the visible growth of a microorganism after a standardized incubation. In the present study, MIC assay was performed by pipetting robot. The principle is that an indicator microorganism at a defined cell density is cultured with a range of concentrations of the test compound, one concentration pr, well in a row on the microtiter plate. For bacteria and yeasts the minimal inhibitory concentration was detected as no increase of optical density (OD), for moulds microtiter plates were read visually. Each indicator organism is tested in duplicate and the MIC is calculated as the average of the two determinations. The tested concentrations of the antimicrobial substances were 2-fold dilutions from 5%. All indicator organisms (see Table 2.) were pre-cultivated in a suitable growth medium and diluted in the same medium to give a final concentration in the assay of ˜1×10^3 cfu/ml. The microtiter plates were incubated under specific incubation conditions (see Table III). [table]

[3] = test system: Leuconostoc mesenteroides ISI 504; assay: Minimal inhibitory concentration (MIC); assay type: cell-based
Procedure: as §1

[4] = test system: Lactobacillus brevis ISI 2269; assay: Minimal inhibitory concentration (MIC); assay type: cell-based
Procedure: as §1

[5] = test system: Streptococcus termophilus ISI 1563; assay: Minimal inhibitory concentration (MIC); assay type: cell-based
Procedure: as §1

[6] = test system: Debaryomyces hansenii ISI 12; assay: Minimal inhibitory concentration (MIC); assay type: cell-based
Procedure: as §1

Bacillus cereus ISI 842 = assay: Minimal inhibitory concentration (MIC); assay type: cell-based
Procedure: as §1

[7] = test system: Pseudomonas aeruginosa, ATCC 10145; assay: PT6 screening, in-can preservation of acrylic paint (ATP, aerobic and anaerobic growth on agar plate); assay type: cell-based
Procedure: The microbial activity in relation to in-can preservation of paint was tested using three methods: ATP measurement, Aerobic growth on agar plate and Anaerobic growth on agar plate in low-air conditions. […] Furthermore, no significant dependence on concentration was shown in these specific tests. Specific about the ATP measurements: test and method developed by Luminultra. A sample is taken from the test paint at a given time and the total amount of ATP is measured. Total ATP amount are measured at Day 7 and 30. After every ATP measurement, streaking of test material on agar plates has been performed. Growth test in aerobic and anaerobic environment are running in 1 and 14 days, respectively. Test organism: Pseudomonas aeruginosa, ATCC 10145 [table] The commercial biocide used for the results listed in Table VIII is Vinkocide CMIK R. Acrylic paint is standard EN152 (modified without PT6 biocide). P. aeruginosa are inoculated in 200 μl concentration to paint sample size of 140 ml in a sterile “paint can-shape” container. Shark Solution candidate A and the commercial biocide are added to the standard paint and mixed in a shaker machine. Every matrix is tested in two replications (n=2) with an additional replication without inoculation of bacteria.

[8] = test system: Pseudomonas aeruginosa, ATCC 15442; assay: EN 1276 quantitative suspension test, bactericidal activity; assay type: cell-based
Procedure: The test was carried out according to EN 1276, 2019: Chemical disinfectants and antiseptics-Quantitative suspension test for the evaluation of bactericidal activity of chemical disinfectants and antiseptics used in food, industrial, domestic, and institutional areas-Test method and requirements. […] The growth media TSB (Tryptic Soy Broth) was separately inoculated with a culture loop of the microorganisms. The cultures were incubated at 37° C. for 24 hours. Bovine Serum Albumin with a final concentration of 3 g/L Polysorbate 80 with a concentration of 30 g/L The used method was Dilution-neutralization method. 1 mL of interfering substance was pipetted into a tube and 1 mL of the test suspension was added and mixed. […] The solution was incubated at 20° C. for 5 min. and 60 min. respectively. […] After 5 min. of neutralization time 100 μL of the mixture was added to a petri-dish containing TSA media. Another 100 μL was added to a tube containing 900 μL 0.9% NaCl and a serial dilution to 10^-5 was made. The mixtures added to the agar plates were evenly distributed with a Drigalski-spatula. The agar plates were incubated at 37° C. for 24 hours. After incubation, the number of surviving bacteria (CFU) was counted. The test was performed in 3 replicates.

Aspergillus niger ISI 3 [9] = assay: Minimum bactericidal concentration (MBC); assay type: cell-based
Description: Even when no growth is detectable in the MIC tests, it is possible that the microorganisms have survived the treatment i.e., they are not killed but just prevented from growing. In order to test for survivors, MBC plates were subsequently made from the MIC plates.

CCCCN(CCO)CCO [NBDA, N-butyldiethanolamine]
Mean log reduction after 60 seconds (Murine norovirus; 1.0% NBDA): 0.34 | Mean log reduction after 60 seconds (Murine norovirus; 5.0% NBDA): 0.34 | Norovirus eliminated (destroyed) in 60 seconds (Murine norovirus; from log reduction 0.34): 54% | pH [1]: around 11.1 | MIC (%) (Aspergillus niger ISI 3 [2]): 0.63% | MIC (%) [3]: 0.31% | MIC data (optical density) ([3]; 0.02% NBDA): 1.025 and 0.943 | MIC data (optical density) ([3]; 0.04% NBDA): 1.135 and 1.104 | MIC data (optical density) ([3]; 0.08% NBDA): 1.005 and 1.027 | MIC data (optical density) ([3]; 0.16% NBDA): 1.065 and 0.990 | MIC data (optical density) ([3]; 0.31% NBDA): 0.051 and 0.052 | MIC data (optical density) ([3]; 0.63% NBDA): 0.047 and 0.049 | MIC data (optical density) ([3]; 1.25% NBDA): 0.046 and 0.047 | MIC data (optical density) ([3]; 2.50% NBDA): 0.046 | MIC data (optical density) ([3]; 5.00% NBDA): 0.044 and 0.041 | MIC (%) [4]: 0.16% | MIC data (optical density) ([4]; 0.02% NBDA): 0.509 and 0.458 | MIC data (optical density) ([4]; 0.04% NBDA): 0.468 and 0.485 | MIC data (optical density) ([4]; 0.08% NBDA): 0.465 and 0.586 | MIC data (optical density) ([4]; 0.16% NBDA): 0.054 and 0.057 | MIC data (optical density) ([4]; 0.31% NBDA): 0.049 and 0.048 | MIC data (optical density) ([4]; 0.63% NBDA): 0.047 and 0.046 | MIC data (optical density) ([4]; 1.25% NBDA): 0.047 and 0.045 | MIC data (optical density) ([4]; 2.50% NBDA): 0.046 and 0.049 | MIC data (optical density) ([4]; 5.00% NBDA): 0.043 and 0.040 | MIC (%) [5]: 0.63% | MIC data (optical density) ([5]; 0.02% NBDA): 0.57 and 0.515 | MIC data (optical density) ([5]; 0.04% NBDA): 0.445 and 0.473 | MIC data (optical density) ([5]; 0.08% NBDA): 0.431 and 0.462 | MIC data (optical density) ([5]; 0.16% NBDA): 0.444 and 0.438 | MIC data (optical density) ([5]; 0.31% NBDA): 0.115 and 0.108 | MIC data (optical density) ([5]; 0.63% NBDA): 0.046 and 0.043 | MIC data (optical density) ([5]; 1.25% NBDA): 0.044 and 0.045 | MIC data (optical density) ([5]; 2.50% NBDA): 0.049 | MIC data (optical density) ([5]; 5.00% NBDA): 0.041 and 0.042 | MIC (%) [6]: 1.25% | MIC data (optical density) ([6]; 0.02% NBDA): 1.027 and 1.215 | MIC data (optical density) ([6]; 0.04% NBDA): 0.964 and 1.224 | MIC data (optical density) ([6]; 0.08% NBDA): 0.974 and 1.114 | MIC data (optical density) ([6]; 0.16% NBDA): 0.975 and 1.145 | MIC data (optical density) ([6]; 0.31% NBDA): 0.877 and 0.973 | MIC data (optical density) ([6]; 0.63% NBDA): 0.619 and 0.582 | MIC data (optical density) ([6]; 1.25% NBDA): 0.047 | MIC data (optical density) ([6]; 2.50% NBDA): 0.045 and 0.046 | MIC data (optical density) ([6]; 5.00% NBDA): 0.044 and 0.043 | MIC (%) (Bacillus cereus ISI 842): 1.25% | MIC data (optical density) (Bacillus cereus ISI 842; 0.02% NBDA): 0.797 and 0.933 | MIC data (optical density) (Bacillus cereus ISI 842; 0.04% NBDA): 0.953 and 0.926 | MIC data (optical density) (Bacillus cereus ISI 842; 0.08% NBDA): 0.880 and 0.764 | MIC data (optical density) (Bacillus cereus ISI 842; 0.16% NBDA): 0.716 and 0.833 | MIC data (optical density) (Bacillus cereus ISI 842; 0.31% NBDA): 0.811 and 0.739 | MIC data (optical density) (Bacillus cereus ISI 842; 0.63% NBDA): 0.664 and 0.824 | MIC data (optical density) (Bacillus cereus ISI 842; 1.25% NBDA): 0.108 and 0.143 | MIC data (optical density) (Bacillus cereus ISI 842; 2.50% NBDA): 0.100 and 0.145 | MIC data (optical density) (Bacillus cereus ISI 842; 5.00% NBDA): 0.087 and 0.120 | anti-microbial potential in paint ([7]; 1, 2 and 5% NBDA): reveal anti-microbial potentials | effectiveness in in-can preservation of paints ([7]; concentrations of 0.5%, 1%, 2%, and 5%): effective against aerobic bacteria | CFU/plate ([8]; 1.5%, contact time 5 min): >165 CFU/plate | log10 reduction ([8]; 1.5%, contact time 5 min): <5 log10 | CFU/plate ([8]; 1.5%, contact time 60 min): >165 CFU/plate | log10 reduction ([8]; 1.5%, contact time 60 min): <5 log10 | CFU/plate ([8]; 3.0%, contact time 5 min): >165 CFU/plate | log10 reduction ([8]; 3.0%, contact time 5 min): <5 log10 | CFU/plate ([8]; 3.0%, contact time 60 min): >165 CFU/plate | log10 reduction ([8]; 3.0%, contact time 60 min): <5 log10 | CFU/plate ([8]; 6.0%, contact time 5 min): >165 CFU/plate | log10 reduction ([8]; 6.0%, contact time 5 min): <5 log10 | CFU/plate ([8]; 6.0%, contact time 60 min): 25 CFU/plate and 22 CFU/plate and 35 CFU/plate | MBC (%) (Aspergillus niger ISI 3 [9]): 0.63%
